Among the data in the PolyMetriX glass transition set are glass transition temperature values, retold here.

In the case of `*/C=C(/*)C(C)(C)C` (repeat unit), the glass transition temperature came out at 200.00 °C.
With `*C(=O)Nc1c(C)cc(Cc2cc(C)c(NC(=O)c3ccc4c(c3)C(=O)N(c3ccc(/N=N/c5ccc([N+](=O)[O-])cc5)c(N5C(=O)c6ccc(*)cc6C5=O)c3)C4=O)c(C)c2)cc1C` (repeat unit) the figure was 280.00 °C.
Under `*C(=O)OCC(COc1ccc(/N=N/c2ccc(C#N)cc2)cc1)OC(=O)c1ccc(*)s1` (repeat unit) stands 119.00 °C; under `*C(=O)OCC(COc1ccc(/N=N/c2ccc(C#N)cc2)cc1)OC(=O)c1ncccc1*` (repeat unit), 130.00 °C.
With `*C(=O)OCCN(CCOC(=O)c1ccc2c(c1)C(=O)N(c1c(C)cc(Cc3cc(C)c(N4C(=O)c5ccc(*)cc5C4=O)c(C)c3)cc1C)C2=O)c1ccc(/N=N/c2ccc([N+](=O)[O-])cc2)cc1` (repeat unit) the figure was 179.00 °C.
With `*C(=O)OCCN(CCOC(=O)c1ccc2c(c1)C(=O)N(c1c(C)cc(Cc3cc(C)c(N4C(=O)c5ccc(*)cc5C4=O)c(C)c3)cc1C)C2=O)c1ccccc1` (repeat unit), the glass transition temperature was found to be 177.00 °C.
Under `*C(=O)c1ccc2c(c1)C(=O)N(c1c(C(C)C)cc(Cc3cc(C(C)C)c(N4C(=O)c5ccc(*)cc5C4=O)c(C(C)C)c3)cc1C(C)C)C2=O` (repeat unit) stands 263.00 °C; under `*CC(=O)NCCCCCCNC(=O)COc1ccc(O*)cc1` (repeat unit), 67.00 °C; under `*CC(=O)Nc1ccc(NC(=O)COc2ccc3ccccc3c2Sc2c(O*)ccc3ccccc23)cc1` (repeat unit), 268.00 °C.
Compound `*CC(=O)Nc1ccc(Oc2ccc(NC(=O)COc3ccc4ccccc4c3Sc3c(O*)ccc4ccccc34)cc2)cc1` (repeat unit) had a glass transition temperature of 245.00 °C.
`*CC(=O)Nc1cccc2c(NC(=O)COc3ccc4ccccc4c3Sc3c(O*)ccc4ccccc34)cccc12` (repeat unit) gave a glass transition temperature of 264.00 °C.
As for `*CC(=O)OC(=O)COc1ccc(O*)cc1` (repeat unit), the glass transition temperature stood at 70.00 °C.
For the compound `*CC(C)(C)COC(=O)c1ccc(-c2ccc(C(=O)O*)cc2)cc1` (repeat unit), the glass transition temperature was 101.00 °C.
Under `*CC(C)(C)COC(=O)c1ccc(/C=C/c2ccc(C(=O)O*)cc2)cc1` (repeat unit) stands 80.00 °C; under `*CC(C)(C)CS(*)(=O)=O` (repeat unit), 108.50 °C.
With `*CC(C)(CC)CO*` (repeat unit) the figure was -47.00 °C; with `*CC(CC)(CC)CO*` (repeat unit), -30.00 °C.
As for `*CC(CC)(CO*)COC(=O)C(=C)C` (repeat unit), the glass transition temperature was 40.00 °C.
`*CC(CCCCCC)C(CCCCCC)COC(=O)c1ccc(C(=O)O*)cc1` (repeat unit) yielded a glass transition temperature of -15.50 °C.
For the compound `*CC(CO*)(CS(=O)(=O)CC)CS(=O)(=O)CC` (repeat unit), the glass transition temperature came to 84.00 °C.
The compound `*CC(COc1ccc(C(C)(C)c2ccc(O*)cc2)cc1)OC(C)=O` (repeat unit) showed a glass transition temperature of 60.00 °C.
`*CC(COc1ccc(S(=O)(=O)c2ccc(O*)cc2)cc1)OC(C)=O` (repeat unit) showed a glass transition temperature of 130.00 °C.
Under `*CC(F)(F)C(F)(F)C(F)(F)COC(=O)c1cc(OCCCCC)cc(C(=O)O*)c1` (repeat unit) stands -30.00 °C; under `*CC(F)(F)C(F)(F)C(F)(F)COC(=O)c1ccc(OCCCCC)c(C(=O)O*)c1` (repeat unit), 9.00 °C; under `*CC(O)CO*` (repeat unit), 17.00 °C.
With `*CC(OC(=O)C(=O)OCC)C(COC(=O)O*)OC(=O)C(=O)OCC` (repeat unit) the figure was 53.80 °C.
`*CC(OC=O)C(COC(=O)O*)OC=O` (repeat unit) came in with a glass transition temperature of 54.30 °C.
With `*CC(OO*)c1ccc(Br)cc1` (repeat unit) the figure was 9.60 °C; with `*CC(OO*)c1ccc(C(C)(C)C)cc1` (repeat unit), 19.90 °C; with `*CC(SS*)c1ccccc1` (repeat unit), 4.80 °C.
With `*CC1CC(COC(=O)c2ccc(C(=O)O*)cc2)CC(C(C)(C)C)C1` (repeat unit) the figure was 118.00 °C; with `*CCC(C)(C)CC(C)COC(=O)c1ccc(C(=O)O*)cc1` (repeat unit), -9.00 °C; with `*CCCCCCCCCCCCOc1ccc(OCc2ccc(COc3ccc(O*)cc3)cc2)cc1` (repeat unit), 24.00 °C.
For the compound `*CCCCCCCCCCCOC(=O)c1cc(OCCCCCCCCOc2ccc(/N=N/c3ccc(OC)cc3)cc2)cc(C(=O)OCCCCCCCCCCCOc2ccc(-c3ccc(O*)cc3)cc2)c1` (repeat unit), the glass transition temperature is 60.00 °C.
Under `*CCCCCCOC(=O)c1cc(OCCCCCCOc2ccc(/N=N/c3ccc(C#N)cc3)cc2)cc(C(=O)OCCCCCCN2C(=O)c3ccc(-c4ccc(-c5ccc6c(c5)C(=O)N(*)C6=O)cc4)cc3C2=O)c1` (repeat unit) stands 67.00 °C; under `*CCCCOC(=O)COCC(=O)O*` (repeat unit), -23.00 °C.
`*CCSS*` (repeat unit) registered a glass transition temperature of -27.00 °C.
With `*CCSSSS*` (repeat unit) the figure was -24.00 °C.
`*C[Si](*)(C)C` (repeat unit) yielded a glass transition temperature of -90.00 °C.
Consider `*C[Si](*)(C)CCCN(CC)CC` (repeat unit), for which the glass transition temperature is -31.7 °C.
With `*Cc1cc2cc(C(=O)Nc3ccc(C(c4ccc(NC(=O)c5cc6cc(*)c(OC(=O)COc7ccc8ccc(=O)oc8c7)cc6oc5=O)cc4)(C(F)(F)F)C(F)(F)F)cc3)c(=O)oc2cc1OC(=O)COc1ccc2ccc(=O)oc2c1` (repeat unit) the figure was 257.00 °C; with `*Cc1cc2cc(C(=O)Nc3ccc(NC(=O)c4cc5cc(*)c(OC(=O)COc6ccc7ccc(=O)oc7c6)cc5oc4=O)cc3)c(=O)oc2cc1OC(=O)COc1ccc2ccc(=O)oc2c1` (repeat unit), 252.00 °C.
`*Nc1cccc(NC(=O)c2cc(NC(=O)c3ccccc3)cc(C(*)=O)c2)c1` (repeat unit) showed a glass transition temperature of 300.00 °C.
Regarding `*OC(C)COC(C)COC(=O)c1ccc(C(*)=O)cc1` (repeat unit), the glass transition temperature stood at 37.00 °C.
With `*OC(COC(*)=O)COC(C)(C)C` (repeat unit) the figure was 18.00 °C; with `*OC(COC(=O)c1c(F)c(F)c(-c2c(F)c(F)c(C(*)=O)c(F)c2F)c(F)c1F)COc1ccc(/N=N/c2ccc(C#N)cc2)cc1` (repeat unit), 112.00 °C; with `*OC(COC(=O)c1cc(C(*)=O)cc(C(C)(C)C)c1)COc1ccc(/N=N/c2ccc(C#N)cc2)cc1` (repeat unit), 137.00 °C.
With `*OC(COC(=O)c1ccc(C(*)=O)c2ccccc12)COc1ccc(/N=N/c2ccc(C#N)cc2)cc1` (repeat unit) the figure was 117.00 °C; with `*OC(COC(=O)c1ccc(C)cc1C(*)=O)COc1ccc(/N=N/c2ccc(C#N)cc2)cc1` (repeat unit), 124.00 °C; with `*OC(COC(=O)c1ccc2cc(C(*)=O)ccc2c1)COc1ccc(/N=N/c2ccc(C#N)cc2)cc1` (repeat unit), 138.00 °C.
With `*OC(COC(=O)c1cccc(-c2ccc(C(*)=O)cc2)c1)COc1ccc(/N=N/c2ccc(C#N)cc2)cc1` (repeat unit) the figure was 135.00 °C; with `*O[Si](C)(C)CC(C)(C)COC(=O)c1cccc(C(=O)OCC(C)(C)C[Si](*)(C)C)c1` (repeat unit), -52.00 °C; with `*Oc1ccc(OC(C)COCCCCCCCOc2ccc(-c3ccc(C(*)=O)cc3)cc2)c([N+](=O)[O-])c1` (repeat unit), 50.00 °C.
`*SCC(=O)N/N=C/c1ccc(OCCCCCCCCCCOc2ccc(/C=N/NC(=O)CSc3nnc(*)s3)cc2)cc1` (repeat unit) had a glass transition temperature of 117.00 °C.
Under `*c1c(C)cc(Cc2cc(C)c(N3C(=O)c4ccc(Oc5c(C)cc(Cc6cc(C)c(Oc7ccc8c(c7)C(=O)N(*)C8=O)c(C)c6)cc5C)cc4C3=O)c(C)c2)cc1C` (repeat unit) stands 264.00 °C; under `*c1c(C)cc(Cc2cc(C)c(N3C(=O)c4ccc(Oc5ccc6ccc(Oc7ccc8c(c7)C(=O)N(*)C8=O)cc6c5)cc4C3=O)c(C)c2)cc1C` (repeat unit), 272.00 °C.
For `*c1ccc(NC(=O)c2cc(NC(=O)c3ccc(NC(=O)C(C)N4C(=O)c5ccccc5C4=O)cc3)cc(C(=O)Nc3ccc(S(*)(=O)=O)cc3)c2)cc1` (repeat unit), the glass transition temperature was determined as 208.00 °C.
With `*c1ccc(Oc2c(C)cc(Cc3cc(C)c(Oc4ccc(N5C(=O)c6ccc(-c7ccc8c(c7)C(=O)N(*)C8=O)cc6C5=O)cc4)c(C)c3)cc2C)cc1` (repeat unit) the figure was 310.00 °C; with `*c1ccc(Oc2ccc(-c3ccc(Oc4ccc(N5C(=O)c6ccc(Oc7c(C)cc(Cc8cc(C)c(Oc9ccc%10c(c9)C(=O)N(*)C%10=O)c(C)c8)cc7C)cc6C5=O)cc4)cc3)cc2)cc1` (repeat unit), 248.00 °C.
In the case of `*c1ccc2c(c1)C(=O)N(c1c(C(C)C)cc(Cc3cc(C(C)C)c(N4C(=O)c5ccc(C(*)(C(F)(F)F)C(F)(F)F)cc5C4=O)c(C(C)C)c3)cc1C(C)C)C2=O` (repeat unit), the glass transition temperature was found to be 278.50 °C.
With `*c1ccc2c(c1)C(=O)N(c1c(C)cc(Cc3cc(C)c(N4C(=O)c5ccc(C(*)(C(F)(F)F)C(F)(F)F)cc5C4=O)c(C)c3)cc1C)C2=O` (repeat unit), the glass transition temperature is 307.50 °C.
`*c1cccc(N2C(=O)c3cccc(Oc4c(C)cc(Cc5cc(C)c(Oc6cccc7c6C(=O)N(*)C7=O)c(C)c5)cc4C)c3C2=O)c1` (repeat unit) came in with a glass transition temperature of 269.00 °C.
